Earlier results, collected in patent publication US6352974B1, “Oral calcitonin pharmaceutical compositions and methods of making the same” (Eurand International S.p.A., priority 1996, dated 2002).

Settings: typical activity

Substance: Salmon calcitonin
- activity: up to 6500 IU/mg
